Measured values taken from ChEMBL document CHEMBL1129198, “Synthesis and antibacterial activity of lipophilic carbapenems with anti-MRSA activity” (Bioorg Med Chem Lett, 1996).
≈ marks a conversion by molar mass, not a printed value.

Legend:
Staphylococcus aureus [1] = test: Antibacterial activity against methicillin-resistant Staphylococcus aureus 607004.; type: functional
Enterococcus faecalis = test: Antibacterial activity against vancomycin-sensitive Enterococcus faecalis 683026.; type: functional
Streptococcus pneumoniae = test: Antibacterial activity against penicillin-resistant Streptococcus pneumoniae 671319; type: functional
[2] = system: Staphylococcus haemolyticus; test: Antibacterial activity against methicillin-resistant Staphylococcus haemolyticus 601117; type: functional
Staphylococcus aureus [3] = test: Antibacterial activity against methicillin-sensitive Staphylococcus aureus 601055.; type: functional
Staphylococcus aureus [4] = test: Antibacterial activity against methicillin-sensitive Staphylococcus aureus 601055.(grown in the presence of blood); type: functional
Staphylococcus aureus [5] = test: Antibacterial activity against methicillin-resistant Staphylococcus aureus 601053.; type: functional
Enterococcus faecium = test: Antibacterial activity against vancomycin-resistant Enterococcus faecium 628016.; type: functional
Staphylococcus aureus [6] = test: Compound was tested for its binding affinity against PBP2'' receptor in Staphylococcus aureus. Values taken from literature.; type: functional
[7] = In vitro binding affinity towards PBP2'' of Staphylococcus aureus using [14C]benzylpenicillin as radioligand
Staphylococcus aureus [8] = test: Compound was tested for its binding affinity against PBP2' receptor in Staphylococcus aureus.; type: functional, organism-based
Staphylococcus aureus [9] = test: Compound was tested for its antibacterial activity against methicillin-resistant Staphylococcus aureus.; type: functional

SMILES	MIC (Staphylococcus aureus [1]) [µg/mL]	MIC (Enterococcus faecalis) [µg/mL]	MIC (Streptococcus pneumoniae) [µg/mL]	MIC [2] [µg/mL]	MIC (Staphylococcus aureus [3]) [µg/mL]	MIC (Staphylococcus aureus [4]) [µg/mL]	MIC (Staphylococcus aureus [5]) [µg/mL]	MIC (Enterococcus faecium) [µg/mL]	IC50 (Staphylococcus aureus [6]) [µg/mL]	IC50 [7] [µg/mL]	IC50 (Staphylococcus aureus [8]) [µg/mL]	MIC (Staphylococcus aureus [9]) [µg/mL]
C[C@@H](O)[C@H]1C(=O)N2C(C(=O)O)=C(COc3ccc4occ(CN(C)C)c(=O)c4c3)[C@H](C)[C@H]12	4 (≈ 9.04 µM)	0.5 (≈ 1.13 µM)	0.12 (≈ 0.271 µM)	2 (≈ 4.52 µM)	0.06 (≈ 0.136 µM)	0.016	0.5 (≈ 1.13 µM)	2 (≈ 4.52 µM)	–	–	–	–
C[C@@H](O)[C@H]1C(=O)N2C(C(=O)O)=C(CNC(=O)c3ccc4ccccc4c3)[C@H](C)[C@H]12	128 (≈ 325 µM)	16 (≈ 40.6 µM)	4 (≈ 10.1 µM)	128 (≈ 325 µM)	0.5 (≈ 1.27 µM)	0.25	8 (≈ 20.3 µM)	32 (≈ 81.1 µM)	–	–	–	–
C[C@@H](O)[C@H]1C(=O)N2C(C(=O)O)=C(COc3ccc4ccccc4c3)[C@H](C)[C@H]12	4 (≈ 10.9 µM)	128 (≈ 348 µM)	4 (≈ 10.9 µM)	2 (≈ 5.44 µM)	0.016 (≈ 0.0435 µM)	32	0.25 (≈ 0.68 µM)	64 (≈ 174 µM)	–	–	–	–
Cc1nc2ccc(SCC3=C(C(=O)O)N4C(=O)[C@H]([C@@H](C)O)[C@H]4[C@H]3C)cc2s1	4 (≈ 9.89 µM)	2 (≈ 4.94 µM)	0.06 (≈ 0.148 µM)	4 (≈ 9.89 µM)	0.03 (≈ 0.0742 µM)	0.016	2 (≈ 4.94 µM)	8 (≈ 19.8 µM)	–	–	–	–
C[C@@H](O)[C@H]1C(=O)N2C(C(=O)O)=C(SCc3ccc4ccccc4c3)[C@H](C)[C@H]12	1 (≈ 2.61 µM)	2 (≈ 5.22 µM)	0.06 (≈ 0.156 µM)	2 (≈ 5.22 µM)	0.06 (≈ 0.156 µM)	0.03	1 (≈ 2.61 µM)	8 (≈ 20.9 µM)	2 (≈ 5.22 µM)	9.5 (≈ 24.8 µM)	9.5 (≈ 24.8 µM)	–
C[C@@H](O)[C@H]1C(=O)N2C(C(=O)O)=C(COc3ccc4occc(=O)c4c3)[C@H](C)[C@H]12	2 (≈ 5.19 µM)	2 (≈ 5.19 µM)	0.03 (≈ 0.0778 µM)	2 (≈ 5.19 µM)	0.016 (≈ 0.0415 µM)	0.016	0.25 (≈ 0.649 µM)	2 (≈ 5.19 µM)	–	–	–	–
C[C@@H](O)[C@H]1C(=O)N2C(C(=O)O)=C(CSc3ccc4ccccc4c3)[C@H](C)[C@H]12	4 (≈ 10.4 µM)	128 (≈ 334 µM)	1 (≈ 2.61 µM)	2 (≈ 5.22 µM)	0.016 (≈ 0.0417 µM)	32	0.5 (≈ 1.3 µM)	128 (≈ 334 µM)	–	–	–	–
C[C@@H](O)[C@H]1C(=O)N2C(C(=O)O)=C(SCCNC(=O)c3ccc4ccccc4c3)[C@H](C)[C@H]12	64 (≈ 145 µM)	4 (≈ 9.08 µM)	0.25 (≈ 0.568 µM)	256 (≈ 581 µM)	0.13 (≈ 0.295 µM)	0.13	4 (≈ 9.08 µM)	8 (≈ 18.2 µM)	–	–	–	–
C[C@@H](O)[C@H]1C(=O)N2C(C(=O)O)=C(CSc3ccc4ccccc4n3)[C@H](C)[C@H]12	4 (≈ 10.4 µM)	4 (≈ 10.4 µM)	0.06 (≈ 0.156 µM)	0.5 (≈ 1.3 µM)	0.016 (≈ 0.0416 µM)	0.03	0.13 (≈ 0.338 µM)	1 (≈ 2.6 µM)	–	–	–	–
C[C@@H](O)[C@H]1C(=O)N2C(C(=O)O)=C(Sc3cccc4ccccc34)[C@H](C)[C@H]12	8 (≈ 21.7 µM)	16 (≈ 43.3 µM)	1 (≈ 2.71 µM)	8 (≈ 21.7 µM)	0.06 (≈ 0.162 µM)	0.06	1 (≈ 2.71 µM)	32 (≈ 86.6 µM)	–	–	–	–
C[C@@H](O)[C@H]1C(=O)N2C(C(=O)O)=C(CSc3ccc4c(c3)CC(=O)N4C)[C@H](C)[C@H]12	8 (≈ 19.9 µM)	4 (≈ 9.94 µM)	0.25 (≈ 0.621 µM)	16 (≈ 39.8 µM)	0.12 (≈ 0.298 µM)	0.06	4 (≈ 9.94 µM)	8 (≈ 19.9 µM)	–	–	–	–
C[C@@H](O)[C@H]1C(=O)N2C(C(=O)O)=C(SCCNC=N)C[C@H]12 [IMIPENEM ANHYDROUS]	64 (≈ 214 µM)	2 (≈ 6.68 µM)	0.12 (≈ 0.401 µM)	64 (≈ 214 µM)	0.03 (≈ 0.1 µM)	0.015	8 (≈ 26.7 µM)	4 (≈ 13.4 µM)	220 (≈ 735 µM)	430 (≈ 1440 µM)	430 (≈ 1440 µM)	128 (≈ 428 µM)
